Data on four compounds can be found in patent publication US4481137A, “Glycoproteins and processes for their production” (Mochida Pharmaceutical Co., Ltd., priority 1982, dated 1984).

In series [1] the test system is tumor cells and normal cells. To be noted: as reported in the literature; cited from earlier work.
For series [2], the system named is Ehrlich ascites tumor. Briefly: Influence on mice transplanted with Ehrlich ascites tumor, survival. In kind it is in vivo, mouse. An excerpt: (§1) Male mice (ddY-Strain) weighing 25-30 g were intraperitoneally transplanted with 3×10^6 cells per animal of Sarcoma 180 or Ehrlich ascites tumor and the period of survival in days was observed.
In series [3] the test system is Sarcoma 180. Briefly: Influence on mice transplanted with Sarcoma 180, survival. In kind it is in vivo, mouse.
Text: as §1

The test system of series [4] is Lewis's lung carcinoma. Briefly: Influence on the survival days of lung carcinoma bearing mice. In kind it is in vivo, mouse. An excerpt:
BDF1 -strain male mice weighing 20-25 g were transplanted with 2×10^6 cells of Lewis's lung carcinoma intramuscularly to the right thigh, and the survival days were observed.

Series [5] deals with mouse leukemia L1210. Kind of series: Influence on the survival days of leukemic mice, L1210. It is filed as in vivo. An excerpt:
(§2) BDF1 -strain male mice weighing 20-25 g were intraperitoneally transplanted with 10^5 cells per animal of mouse leukemia L1210 or 10^6 cells per animal of mouse leukemia […], and the period of survival in days was observed.

Series [6] has as its system Lewis's lung cancer. Kind of series: Influence on the lung metastasis of cancer. It is filed as in vivo, mouse. Particulars: mean ± SE. As for the experimental part: Groups of BDF1 -strain male mice weighing 20-30 g, 6 animals in each group, had transplanted subcutaneously into their backs 2 mm square segments of Lewis's lung cancer. […] On the 21st day after transplantation, the mass of primary tumor was isolated and weighed, and the number of the metastasized nodes in the animal's lungs was calculated according to the method of Wexler, H. (J. Natl. Cancer Institute, Vol. 36 641 (1966)).

The subject of series [7] is mouse leukemia P388. Kind of series: Influence on the survival days of leukemic mice, P388. It is filed as in vivo.
Text: as §2

The subject of series [8] is mouse melanoma B 16. Kind of series: Influence on the survival period of melanoma bearing mice. In kind it is in vivo. An excerpt: BDF1 -strain male mice weighing 20-25 g had transplanted subcutaneously in their back 10^6 cells per animal of mouse melanoma B 16, and the survival days were observed.
Series [9] relates to acute myelogenous leukemia cells M-1. Kind of series: Effect on inducing differentiation of tumor cells. Particulars: 20.0 ng/ml, 48 h (control 1). It is filed as cell-based. How it is done: According to the method of Hozumi, M. et al (Cancer Research, Vol, 40, 2919-2924 (1980)), 5×10^5 cells of acute myelogenous leukemia cells M-1 (supplied from Dr. Motoo Hozumi, Saitama Cancer Center) were suspended in 1 ml of Eagle's medium containing 10% calf serum and also containing amino acids and vitamins in amounts twice the ordinary levels, to which each test substance had been added, and cultured at 37° C. for 48 hours in a 5% CO2, 95% air atmosphere. Thereafter, the cells were resuspended in a medium containing 0.2% polystyrene latex particles (Dow Chemical Co.) and incubated at 37° C. for 4 hours. Then the total number of cells which phagocytotized the particles and the total number of cells were counted under a light microscope, and the differentiation rate was calculated from the ratio of these cells.

The test system of series [10] is P388 cells. Kind of series: Selectivity of cytotoxic effect, P388 cells (leukemia). In kind it is cell-based, Mouse. Particulars: P388, 48 h, 37°C. As for the experimental part: (§3) Samples of 10^5 cells of each of tumor cell lines including KB cells (nasopharynx cancer), MX-1 cells (breast cancer, supplied from Dr. Shigeru Tsukagoshi, Cancer Institute), HEp-2 cells (throat cancer) and HEL cells (hepatoma, Flow Co.) and of normal cell lines including intestine 407 cells, Girardi heart cells, Chang Liver cells, Vero cells (monkey kidney) and MDCK cells (dog kidney) (Flow Co.), all of which had been precultured for 24 hours respectively, and 10^5 cells of each of P388 and L1210 cells (leukemia, supplied from Dr. Shigeru Tsukagoshi, Cancer Institute), which were used immediately, were each cultured in 1 ml of Eagle's medium containing 10% calf serum and each test substance at 37° C. for 48 hours in a 5% CO2, 95% air atmosphere. Thereafter the number of the viable cells not stained by Trypan Blue was counted under a light microscope, and the concentration of the test substance at which 50% of the cells are killed was calculated against a control taken as 100. […] One unit of the Lymphotoxins and CBF is expressed by a conventional index which is based on the cytotoxicity on mouse L cells (Eds., Bloom, B. R. & Grade, P. R. "In Vitro Methods in Cell-mediated Immunity", Academic Press,1979).

In series [11] the test system is MDCK cells. Kind of series: Selectivity of cytotoxic effect, normal cells MDCK (dog kidney). It is filed as cell-based. To be noted: 48 h, 37°C. How it is done:
as §3

Series [12] concerns HEp-2 cells. Briefly: Selectivity of cytotoxic effect, HEp-2 cells (throat cancer). In kind it is cell-based, Human. Particulars: HEp-2, 48 h, 37°C. How it is done:
as §3

The test system of series [13] is HEL cells. Kind of series: Selectivity of cytotoxic effect, HEL cells (hepatoma). It is filed as cell-based, Human. Particulars: 48 h, 37°C. How it is done: as §3
Series [14] relates to 3-Methylcholanthrene-induced tumor. Kind of series: Influence on methylcholanthrene-induced tumor. It is filed as in vivo, ddY-strain mice. To be noted: daily dose 0.5 mg/kg, mean ± SE (control 10.5 ± 2.3). How it is done: 3-Methylcholanthrene dissolved in olive oil was subcutaneously injected to the lateral abdomen of ddY-strain mice, weighing 20-25 g, 8 animals in each group, at 0.5 mg per mouse. CBX3 obtained in Example 26 or 29 was intravenously administered to the mice once a day for 21 days from about 60 days after the 3-Methylcholanthren injection. On the 21st day after the first CBX3 administration, the volume of the tumor was measured.

In series [15] the test system is KB cells. Kind of series: Selectivity of cytotoxic effect, KB cells (nasopharynx cancer). It is filed as cell-based, Human. Particulars: 48 h, 37°C. How it is done: as §3
Series [16] concerns Vero cells. Briefly: Selectivity of cytotoxic effect, normal cells Vero (monkey kidney). It is filed as cell-based. To be noted: 48 h, 37°C. How it is done:
as §3

The subject of series [17] is MX-1 cells. Briefly: Selectivity of cytotoxic effect, MX-1 cells (breast cancer). It is filed as cell-based, Human. Particulars: MX-1, 48 h, 37°C. How it is done:
as §3

Series [18] relates to Primary Culture Rat Liver. Kind of series: Selectivity of cytotoxic effect, primary culture rat liver. In kind it is cell-based. To be noted: primary culture rat liver (normal), 48 h, 37°C; read-out: Concentration for 50% Inhibition of Growth.
Series [19] concerns human breast cancer MX-1. Kind of series: Influence on breast cancer bearing mice. To be noted: daily dose 0.5 mg/kg, mean ± SE (control 9.7 ± 2.2). In kind it is in vivo, BALB/C strain nude mice. How it is done:
BALB/C strain nude mice weighing 20-25 g, 6 animals in each group, had transplanted subcutaneously into their backs 2 mm square segments of human breast cancer MX-1. CBX3 obtained in Example 26 or 29 was intravenously administered into the mice for 14 days from the 14th day after the transplantation. On the 15th day after the first administration,the volume of the primary tumor was measured.

In series [20] the test system is Chang Liver cells. Kind of series: Selectivity of cytotoxic effect, normal cells Chang Liver. It is filed as cell-based, Human. To be noted: 48 h, 37°C. As for the experimental part:
as §3

Series [21] deals with tumor cells and normal cells. Briefly: Cytotoxicity, selectivity tumor cells versus normal cells. In kind it is cell-based.
Text: One unit of CB is defined to be the amount of the substance at which the growth of 10^5 nasopharynx cancer of KB cell is inhibited by 50%.
as §3

For series [22], the system named is intestine 407 cells. Briefly: Selectivity of cytotoxic effect, normal cells intestine 407. Particulars: intestine 407 (normal), 37°C. In kind it is cell-based, Human. As for the experimental part:
as §3

Series [23] concerns L1210 cells. Kind of series: Selectivity of cytotoxic effect, L1210 cells (leukemia). It is filed as cell-based, Mouse. Particulars: L1210, 48 h, 37°C. How it is done: as §3
[24] abbreviates: Mus musculus, read-out: Concentration for 50% Inhibition of Growth.
Setting [25] is: daily dose 0.5 mg/kg, 0.5 mg/kg.
Setting [26] is: Homo sapiens, read-out: Concentration for 50% Inhibition of Growth.

Values after ≈ are worked out from the molar mass of the structure shown. Values joined by “and” are separate entries in the source; they are usually repeats but may differ in a detail not shown here. Identical values can stand only once.

Turning to Tumor Necrosis Factor, the “Cytotoxic effect, selectivity for tumor cells over normal cells (in words)” value in series [1] is reported as “selective cytotoxic effect on tumor cells”.

Consider `O=P1(N(CCCl)CCCl)NCCCO1` (centres unmarked) [Cyclophosphamide], for which the “Average Survival Days (% of control group)” value in series [2] (daily dose 20 mg/kg, 20 mg/kg) was 212% and 206%; in series [3] (Sarcoma 180, daily dose 20 mg/kg, 20 mg/kg), 172% and 170%; in [4] (daily dose 20 mg/kg, 20 mg/kg), 163% and 164%; in [5] (L1210, daily dose 20 mg/kg, 20 mg/kg) it was 172% and 149%; in [7] (P388, daily dose 20 mg/kg, 20 mg/kg), 147% and 145%; in series [8] (melanoma B 16, daily dose 20 mg/kg) it was 158%. The “Tumor Weight” value in series [6] (Table 7-1 Experiment 1 (control 9.6 ± 1.9), daily dose printed 20 unit/kg) amounted to 3.4 ± 0.7 g; in series [6] (Table 7-2 (control 7.8 ± 0.5), daily dose printed 20 unit/kg) it was 3.5 ± 0.6 g. Further, the “No. of Metastasized Nodes in Lung” value is 0.4 ± 0.2 in [6] (Table 7-1 Experiment 1 (control 29.2 ± 7.3), daily dose printed 20 unit/kg) and 0.6 ± 0.3 in series [6] (Table 7-2, daily dose printed 20 unit/kg).

`C[C@@H]1C[C@H]2[C@@H]3CCC4=CC(=O)C=C[C@]4(C)[C@@]3(F)[C@@H](O)C[C@]2(C)[C@@]1(O)C(=O)CO` [Dexamethasone]: the “Differentiation Rate” value in series [9] stood at 25%.

With `CO[C@@]12[C@H](COC(N)=O)C3=C(C(=O)C(C)=C(N)C3=O)N1C[C@@H]1N[C@@H]12` [Mitomycin C], the IC50 in series [10] (setting [24]) turned out to be 36 µg/mL (≈ 108 µM); in [11] (Canis lupus familiaris, MDCK, read-out: Concentration for 50% Inhibition of Growth) it was 41 µg/mL (≈ 123 µM); in series [12] (setting [26]), 17 µg/mL (≈ 50.8 µM); in [13] (setting [26]), 26 µg/mL (≈ 77.8 µM); in series [15] (setting [26]), 34 µg/mL (≈ 102 µM); in series [16] (Primates, Vero, read-out: Concentration for 50% Inhibition of Growth), 52 µg/mL (≈ 156 µM). Further, the IC50 amounted to 32 µg/mL (≈ 95.7 µM) in series [17] (Homo sapiens, MX1, 48 h, read-out: Concentration for 50% Inhibition of Growth); 61 µg/mL (≈ 182 µM) in [18]; 19 µg/mL (≈ 56.8 µM) in [20] (Homo sapiens, Chang liver, read-out: Concentration for 50% Inhibition of Growth); 32 µg/mL (≈ 95.7 µM) in series [22] (Homo sapiens, Intestine 407, 48 h, read-out: Concentration for 50% Inhibition of Growth); 43 µg/mL (≈ 129 µM) in [23] (setting [24]). The “Concentration for 50% Inhibition of Growth” value in series [10] was 37 µg/mL; in series [11], 44 µg/mL; in series [12], 18 µg/mL; in series [13] it was 25 µg/mL; in series [15] it was 35 µg/mL; in series [16], 50 µg/mL. The “Concentration for 50% Inhibition of Growth” value in [17] is 30 µg/mL; in [20], 21 µg/mL; in series [22] (48 h), 35 µg/mL; in [23] it was 44 µg/mL. Besides, the “Average Survival Days (% of control group)” value in [2] (setting [25]) is 168% and 164% and 166%; in series [3] (Sarcoma 180, daily dose 0.5 mg/kg, 0.5 mg/kg) it was 140% and 138% and 142%; in series [4] (setting [25]), 121% and 120%; in [5] (L1210, daily dose 0.5 mg/kg, 0.5 mg/kg), 128% and 136%; in [5] (L1210, dose 5.0 mg/kg (Table 4-3)), 132%; in [7] (P388, daily dose 0.5 mg/kg, 0.5 mg/kg), 133% and 130%. Further, the “Average Survival Days (% of control group)” value in series [7] (P388, dose 5.0 mg/kg (Table 4-3)) is listed as 141%; in [8] (melanoma B 16, daily dose 0.5 mg/kg, 0.5 mg/kg), 140%. Besides, the entries for the “Tumor Volume” value in series [14] and in [19] were 6.6 ± 1.3 cm^3 and 4.4 ± 1.1 cm^3, respectively. Besides, the “Cytotoxicity, selectivity for tumor cells over normal cells (in words)” value in series [21] was “nonselective cytotoxicity to the normal cells and the tumor cells”.
